Target: T1, Recombinant human TYK2 catalytic domain (amino acids 871-1187) (Homo sapiens, UniProt P29597)
T1 construct: catalytic domain (amino acids 871-1187)
T1 sequence (P29597 871-1187): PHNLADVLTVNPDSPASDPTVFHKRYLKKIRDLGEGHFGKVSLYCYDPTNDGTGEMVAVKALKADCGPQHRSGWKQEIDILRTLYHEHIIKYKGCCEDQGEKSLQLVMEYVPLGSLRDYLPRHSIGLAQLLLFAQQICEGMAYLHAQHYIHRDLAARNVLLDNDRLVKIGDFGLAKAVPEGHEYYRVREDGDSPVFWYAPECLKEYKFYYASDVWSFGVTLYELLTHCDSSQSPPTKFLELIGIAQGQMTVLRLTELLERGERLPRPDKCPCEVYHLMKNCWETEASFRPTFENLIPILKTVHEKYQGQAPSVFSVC
Test: TYK2 radioactive assay polyGT substrate; further: 0.1 µM ATP
Assay type: biochemical
Procedure: After 120 min at 30° C., reactions were stopped by adding 25 μL/well of 150 mM phosphoric acid. […] Plates were washed 6 times with 300 μL per well of a 75 mM phosphoric acid solution and the bottom of the plates is sealed. […] Kinase activity is calculated by subtracting counts per min (cpm) obtained in the presence of a positive control inhibitor (10 μM staurosporine) from cpm obtained in the presence of vehicle. The ability of a test compound to inhibit this activity (or percentage inhibition) is determined as: […]
cpm test compound=cpm determined for sample with test compound present cpm control=cpm determined for sample with positive control inhibitor cpm vehicle=cpm determined in the presence of vehicle
Dose dilution series were prepared for the compounds enabling the testing of dose-response effects in the TYK2 assay and the calculation of the IC50 for each compound. Each compound is routinely tested at concentration of 20 μM followed by a 1/5 serial dilution, 10 points in a final concentration of 1% DMSO.

Row | Compound | IC50
1 | Cc1cc(C#N)ncc1Oc1cc(Nc2ccc(N3CC(N(C)C)C3)nn2)c2ncn(C)c2n1 [Compound 143, 5-[7-[[6-[3-(dimethylamino)azetidin-1-yl]pyridazin-3-yl]amino]-3-methylimidazo[4,5-b]pyridin-5-yl]oxy-4-methylpyridine-2-carbonitrile] | 4.55 nM
2 | Cc1cc(C#N)ncc1Oc1cc(Nc2ccc(N3C[C@H]4C[C@@H]3CN4C)nn2)c2ncn(C)c2n1 [Compound 152, 4-methyl-5-[3-methyl-7-[[6-[(1R,4R)-5-methyl-2,5-diazabicyclo[2.2.1]heptan-2-yl]pyridazin-3-yl]amino]imidazo[4,5-b]pyridin-5-yl]oxypyridine-2-carbonitrile] | 12.5 nM
3 | Cc1cc(C#N)ncc1Oc1cc(Nc2ccc(C(=O)N3CCOC(C4CC4)C3)cn2)c2ncn(C)c2n1 (stereo not drawn) [Compound 156, 5-[7-[[5-(2-cyclopropylmorpholine-4-carbonyl)pyridin-2-yl]amino]-3-methylimidazo[4,5-b]pyridin-5-yl]oxy-4-methylpyridine-2-carbonitrile] | 1.75 nM
4 | Cc1cc(C#N)ncc1Oc1cc(Nc2ccc(C(=O)N3CCOC[C@H]3C(C)C)cn2)c2ncn(C)c2n1 [Compound 157, 4-methyl-5-[3-methyl-7-[[5-[(3R)-3-propan-2-ylmorpholine-4-carbonyl]pyridin-2-yl]amino]imidazo[4,5-b]pyridin-5-yl]oxypyridine-2-carbonitrile] | 0.97 nM
5 | Cc1cc(C#N)ncc1Oc1cc(Nc2ccc(C(=O)N3CCOCC3C3CC3)cn2)c2ncn(C)c2n1 (stereo not drawn) [Compound 159, 5-[7-[[5-(3-cyclopropylmorpholine-4-carbonyl)pyridin-2-yl]amino]-3-methylimidazo[4,5-b]pyridin-5-yl]oxy-4-methylpyridine-2-carbonitrile] | 1.02 nM
6 | Cc1cc(C#N)ncc1Oc1cc(Nc2ccc(C(=O)N3CCOCC3C#N)cn2)c2ncn(C)c2n1 (stereo not drawn) [Compound 162, 4-[6-[[5-(6-cyano-4-methylpyridin-3-yl)oxy-3-methylimidazo[4,5-b]pyridin-7-yl]amino]pyridine-3-carbonyl]morpholine-3-carbonitrile] | 2.06 nM

Continued by falling IC50, values first:

Row | IC50 | Compound
7 | 2.76 nM | Cc1cc(C#N)ncc1Oc1cc(Nc2ccc(C(=O)N(C)CCO)cn2)c2ncn(C)c2n1 [Compound 136, 6-[[5-(6-cyano-4-methylpyridin-3-yl)oxy-3-methylimidazo[4,5-b]pyridin-7-yl]amino]-N-(2-hydroxyethyl)-N-methylpyridine-3-carboxamide]
8 | 2.05 nM | Cc1cc(C#N)ncc1Oc1cc(Nc2ccc(C(=O)N3CCOC(C(F)(F)F)C3)cn2)c2ncn(C)c2n1 (stereo not drawn) [Compound 155, 4-methyl-5-[3-methyl-7-[[5-[2-(trifluoromethyl)morpholine-4-carbonyl]pyridin-2-yl]amino]imidazo[4,5-b]pyridin-5-yl]oxypyridine-2-carbonitrile]
9 | 1.39 nM | Cc1cc(C#N)ncc1Oc1cc(Nc2ccc(C(=O)N3CCOC(C#N)C3)cn2)c2ncn(C)c2n1 (stereo not drawn) [Compound 160, 4-[6-[[5-(6-cyano-4-methylpyridin-3-yl)oxy-3-methylimidazo[4,5-b]pyridin-7-yl]amino]pyridine-3-carbonyl]morpholine-2-carbonitrile]
